Assay [1] deals with C6 glioma cell derived from rat. Put plainly: Glioma cell uptake experiment. In kind it is cell-based. The conditions noted are these: for cell uptake reduced by LAT1 inhibitor (BCH) to fraction of uptake: 100 mM BCH addition group; for cell uptake reduced by competitive inhibitor (Phe) to fraction of uptake: 1% Phe addition group; for specificity of cell uptake (via LAT1): concluded from Phe and BCH inhibition; for cell uptake (amount of radioactivity taken up intracellularly): inhibitor-free group, amino acid-free HBSS medium. The procedure: The concentration of the 4-211At-L-phenylalanine (4-^211At-Phe) solution prepared in Example 2 and the 3-^211At-D,L-phenylalanine (3-^211At-Phe) solution prepared in Example 7 were each adjusted to 5 MBq/2 mg·ml. C6 glioma cell derived from rat was seeded on each well of 24-well plate by 5×10^5 cells/well, is and the cells were used in the next day's experiment (cell number: about 1×10^6 cells/well). Before the experiment, the medium was replaced with an amino acid-free HBSS medium (0.5 ml/well). 4-^211At-Phe or 3-^211At-Phe was added to each well of the plate by 10 μl, and the wells were divided into three groups of inhibitor-free group, 1% Phe addition group (competitive inhibitor) and 100 mM BCH addition group (LAT1 inhibitor), and incubated at 37° C. for 30 minutes or 60 minutes. After the incubation, the culture solution was removed, and the cells were washed with PBS, and lysed, and the amount of radioactivity taken up intracellularly was measured. […] Moreover, the cell uptake after 60 minutes was reduced, compared to that after 30 minutes. The competitive inhibitor (Phe) reduced the cell uptake of 4-^211At-Phe and 3-^211At-Phe to ½ to ⅓, and LAT1 inhibitor (BCH) reduced the cell uptake of 4-^211At-Phe and 3-^211At-Phe to ¼ to ⅛. […] Especially, the cell uptake of 3-^211At-Phe was more than that of 4-^211At-Phe, and therefore, 3-211At-Phe can be further expected for the above-mentioned application.

For another assay, the system named is C6 glioma tumor. In words: SPECT imaging of C6 glioma-transplanted rat. The format is in vivo. The conditions noted are these: 1 MBq, tail vein; 30 minutes and 3 hours after administration; tumor in both flanks. As to the method: The 4-^211At-L-phenylalanine (4-^211At-Phe) (1 MBq) prepared in Example 2 was administered to the tail vein of the glioma-transplanted rat, and the rat was imaged by SPECT camera (E-cam, Siemens). In both images, the is accumulation of 4-^211At-Phe in the tumor (both flanks, indicated by arrows in the figure) was observed. Therefore, 4-^211At-Phe can be expected to be applied to RI internal therapy or diagnosis for cancer.

We go through two compounds from patent US12421179B2, “Production method for radiolabeled aryl compound” (OSAKA UNIVERSITY, priority 2017, dated 2025).

For the compound `NC(Cc1cccc([211At])c1)C(=O)O` (racemic) [3-^211At-Phe, 3-^211At-D,L-phenylalanine], in assay [1], the “cell uptake reduced by LAT1 inhibitor (BCH) to fraction of uptake” value is reported as “¼ to ⅛”, the “cell uptake reduced by competitive inhibitor (Phe) to fraction of uptake” value was “½ to ⅓” and the “specificity of cell uptake (via LAT1)” value is on record as “specifically taken up by the cells via LAT1”. For the same compound, in assay [1] (C6 glioma cells, 37° C.), the “cell uptake after 60 minutes compared to that after 30 minutes” value is “reduced”. Further, the “cell uptake compared with 4-^211At-Phe” value in assay [1] (C6 glioma cells, 37° C., 30 or 60 minutes) is “slightly more than that of 4-^211At-Phe”. For the same compound, the “cell uptake (amount of radioactivity taken up intracellularly)” value in assay [1] (37° C., 30 or 60 minutes) was “taken up by the cell”. Besides, the “uptake by cancer cells (general statement)” value in assay [1] (summary statement in the description) was “taken up in large amounts by cancer cells”.
Take `N[C@@H](Cc1ccc([211At])cc1)C(=O)O` [4-^211At-Phe, 4-^211At-L-phenylalanine]: in the assay with C6 glioma tumor, the “accumulation in the tumor (SPECT images)” value is on record as “observed”. Also, in assay [1], the “cell uptake reduced by LAT1 inhibitor (BCH) to fraction of uptake” value is recorded as “¼ to ⅛”, the “cell uptake reduced by competitive inhibitor (Phe) to fraction of uptake” value is reported as “½ to ⅓” and the “specificity of cell uptake (via LAT1)” value was “specifically taken up by the cells via LAT1”. In addition, the “cell uptake after 60 minutes compared to that after 30 minutes” value in assay [1] (C6 glioma cells, 37° C.) was “reduced”. Also, the “cell uptake (amount of radioactivity taken up intracellularly)” value in assay [1] (37° C., 30 or 60 minutes) is given as “taken up by the cell”.
